Results: patent US10280171B2, “Heterocyclic inhibitors of PTPN11” (priority 2016, dated 2019)

Key:
[1] = test system: BT474 human breast carcinomas cell line; experiment: In Vivo Tumor Models: BT474 xenograft; conditions: BT474 (HER2+) xenograft in mouse, 100 mg/kg once per day oral gavage, 5 days on/2 days off, 4 weeks
Text: Xenografts were initiated with BT474 human breast carcinomas cell line and maintained by serial subcutaneous transplantation in CB-17/SCID mice (Charles River). On the day of tumor implant, each test mouse received a 1 mm^3 BT474 fragment implanted subcutaneously in the right flank, and tumor growth was monitored as the average size approached the target range of 100 to 150 mm3. About three weeks post-implantation, the animals were randomized and grouped based on tumor volume and mouse body weight. […] Tumors were measured in two dimensions using calipers, and volume was calculated using the formula: Tumor Volume (mm^3)=[…].
Results are found in FIGS. 1 and 2.

[2] = test system: Phospho-ERK levels in KYSE-520 cells; experiment: ERK Phosphorylation (Phospho-ERK) Target Engagement Assay (HTRF); assay type: cell-based; conditions: Homo sapiens, 2 hr compound incubation, phospho-ERK1/2 HTRF kit, read-out: pERK target engagement assay Avg IC50
Method: KYSE-520 cells (10 k cells/well) are plated onto 384-well plate in 20 uL of medium (RPMI-1640, without phenol red, containing 10% FBS) and incubated at 37° C., 5% CO2 16 h. DMSO (control) or increasing concentrations of compounds are diluted in medium, added to the 384-well plate (10 uL/well, final DMSO concentration of 0.5-1%), and cells are then incubated with compounds for 2 hr. Phospho-ERK levels are measured using a TR-FRET based phospho-ERK1/2 HTRF kit (CisBio, 64ERKPEH) following manufacturer's recommendations, and fluorescence signal was measured at 665 nm and 620 nm using Synergy Neo plate reader. Dose-response curves were analyzed using IC50 regression curve fitting (GeneData Screener). Curves were normalized to a high controls without inhibitor, and low controls with 1 μM of selumetinib.

In the case of `CC1(N)CCN(c2cnc3c(-c4cccc(Cl)c4Cl)n[nH]c3n2)CC1` [Example 1, 1-(3-(2,3-dichlorophenyl)-1H-pyrazolo[3,4-b]pyrazin-6-yl)-4-methylpiperidin-4-amine], the “suppression of tumor growth” value [1] is reported as “significant suppression of tumor growth”, the tolerability of dose [1] is reported as “tolerated” and the IC50 [2] is reported as 49 nM.
